Measurements: paper PMC5365662, “A Short Double-Stapled Peptide Inhibits Respiratory Syncytial Virus Entry and Spreading” (Antimicrobial Agents and Chemotherapy, 2017)
Bridge positions count the residues as written; N and C are the ends. Square brackets hold non-standard residues; d marks the D form. Peptide text beside a SMILES is read from it. S5 = C=CCCC[C@](C)(N)C(=O)O

Experiments:
RSV = conditions: cited from earlier work
From the text: The RSV fusion glycoprotein (F) is the focus of active research in the field of vaccines, neutralizing antibodies, and small molecules. […] RSV F is a type I fusion protein that is activated into a metastable prefusion state upon cleavage by host proteases. The prefusion state contains a hydrophobic fusion peptide, ...

[1] = all solvents tested
[2] = Far-UV circular dichroism, α-helical content; assay type: physicochemical; conditions: CD, 10 mM phosphate buffer pH 7.5, 50 μM peptide, 25°C
Experimental: The circular dichroism spectra were acquired on a Chirascan spectropolarimeter. The samples were prepared in 10 mM phosphate buffer, pH 7.5, at a peptide concentration of 50 μM. Data were recorded at 25°C by step scan from 180 nm to 260 nm in a 0.5-mm path length quartz cell using 1-nm wavelength increments and a response time of 1 s. The data were converted to per residue molar ellipticity units [θ] (degree per square centimeter per decimole per residue) and smoothed using the Igor Pro software. The percentage of helicity was calculated as described previously ([35]).

[3] = tested on: recombinant GFP-expressing RSV (strain A2) in A549 cells; assay type: cell-based, human respiratory syncytial virus; conditions: cellular RSV-eGFP assay, data not shown
Experimental: A549 cells were infected with a recombinant green fluorescent protein (GFP)-expressing RSV (strain A2) ([23]), and the inhibitory activity of the peptide was quantified by flow cytometry.
Each peptide was diluted 3 times by 2-fold serial dilutions. eGFP RSV virus at an MOI of 0.5 was used for the infection, and GFP-positive cells were counted by FACS analysis 24 h p.i. The GFP data were normalized to the fluorescence values observed with virus only and plotted as percent inhibition.
Serial 4-fold dilutions of inhibitors were mixed with eGFP-encoding RSV virus ([23]) with a volume of virus required to achieve approximately 50% of infection in medium containing 2% fetal calf serum. The resulting mixture was added to 24-well plates containing A549 cells. Cells were incubated for 2 h at 37°C, the medium was replaced, and cells were incubated for an additional 24 h. Cells were treated with 300 μl of trypsin for 10 min at 37°C, and the detached cells were diluted in 1 ml of culture medium. Following centrifugation at 1,700 rpm, the pellet was resuspended in 300 μl of PBS–1% fetal bovine serum (FBS) (vol/vol) and GFP-positive cells were counted by fluorescence-activated cell sorter (FACS) analysis. The GFP data were normalized to the fluorescence value observed with virus only. The resulting inhibition curves were fitted in Igor Pro as described above.

[4] = Proteolytic stability assay, trypsin; assay type: in vitro ADME; conditions: trypsin (isolated protease); 100 mM Tris-HCl pH 8.0, 10 mM CaCl2, 25°C; LC-MS of intact peptide, exponential decay fit; 3 experiments
Experimental: (§1) This is an important parameter to assess for the development of peptide therapeutics. Peptides 4bb, 4ca, and 4a, and the unstapled analog peptide 4, as well as both SAH-RSVFBD isomers, were treated with chymotrypsin or trypsin, and the samples were analyzed by LC/MS to quantify the reaction products over time. […] In comparison, both SAH-RSVFBD isomers were more susceptible to proteolytic degradation, with half-lives of approximately 7 h and 5 min against chymotrypsin and trypsin, respectively.
(§2) In vitro proteolytic degradation was measured via LC-MS using an Agilent Infinity 1280 UHPLC system coupled to an Agilent quadrupole time of flight (QTOF) 6530 instrument with an Agilent Jet Stream electrospray ionization (AJS ESI) source (all from Agilent Technologies, Waldbronn, Germany). Five microliters of digested sample was injected onto a C18 column (Zorbax Eclipse Plus RRHD, 1.8 μm, 2.1 by 100 mm; Agilent Technologies, Waldbronn, Germany) equilibrated with solvent A (5% acetonitrile, 0.2% formic acid) and eluted with a flow rate of 0.4 ml/min over a 5 to 95% gradient of solvent B (95% acetonitrile, 0.2% formic acid) in 5 min, followed by 1.5 min at 95% and 0.5 min posttime. The AJS ESI source was operated with a capillary voltage of 4,000 V and a nozzle voltage of 600 V with a drying gas temperature of 325°C and flow rate of 10 liters/min, nebulizing gas pressure of 20 lb/in^2, and a sheath gas temperature of 300°C and flow rate of 11 liters/min. Mass spectra were acquired in the positive-ion mode from 100 to 3,200 m/z at a rate of 1 scan per second in extended dynamic range (2 GHz) mode. The fragmentor, skimmer, and octopole RF voltages were set to 200, 60, and 750 V, respectively. Data were acquired and analyzed with the Agilent MassHunter Workstation (version B.05).
Peptide digestion was performed as follows: 10 μl of peptide at 0.29 mM in 50:50 acetonitrile-water was dissolved in 990 μl 100 mM Tris-HCl (pH 8.0) with 10 mM CaCl2. Following measurement of the undigested (t0) sample, 10 μl of chymotrypsin at 50 μg/ml in 100 mM Tris-HCl (pH 8.0) with 10 mM CaCl2 was added, and the sample was vortexed and placed immediately in the autosampler, set to 25°C. The level of intact peptide was quantified by serial injection over time. […] The value of the fit at t = 0 min was used to calculate the percentage of the intact peptide at each point as follows: Percent intact (t) = [Vol (t)/Volt0] × 100, where Vol is the total volume calculated using Find Compounds by Molecular Feature and Volt0 is the value of the fit at time t = 0. A plot of the intact peptide MFE peak area over time gave an exponential decay curve, from which the half-life was determined using MatLab […].

[5] = Proteolytic stability assay, chymotrypsin; assay type: in vitro ADME; conditions: chymotrypsin (isolated protease); 10 μl peptide 0.29 mM in 990 μl 100 mM Tris-HCl pH 8.0, 10 mM CaCl2; 10 μl chymotrypsin 50 μg/ml; 25°C; LC-MS of intact peptide, exponential decay fit; 3 experiments
Experimental: as §1, §2
(§3) Peptide digestion was performed as follows: 10 μl of peptide at 0.29 mM in 50:50 acetonitrile-water was dissolved in 990 μl 100 mM Tris-HCl (pH 8.0) with 10 mM CaCl2. Following measurement of the undigested (t0) sample, 10 μl of chymotrypsin at 50 μg/ml in 100 mM Tris-HCl (pH 8.0) with 10 mM CaCl2 was added, and the sample was vortexed and placed immediately in the autosampler, set to 25°C. The level of intact peptide was quantified by serial injection over time. Integration of the intact peptide compound chromatogram was performed using the Agilent Molecular Feature Extraction (MFE) algorithm. The value of the fit at t = 0 min was used to calculate the percentage of the intact peptide at each point as follows: Percent intact (t) = [Vol (t)/Volt0] × 100, where Vol is the total volume calculated using Find Compounds by Molecular Feature and Volt0 is the value of the fit at time t = 0. A plot of the intact peptide MFE peak area over time gave an exponential decay curve, from which the half-life was determined using MatLab […].

[6] = tested on: rHRSV-mCherry in HEp-2 cells; test: rHRSV-mCherry inhibition assay; assay type: cell-based, human respiratory syncytial virus; conditions: HEp-2 cells
Outline: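 HEp-2 cells infected at MOI 0.2 with rHRSV-mCherry preincubated 15–20 min with serially diluted peptide, peptide kept in 2% FBS medium for 48 h at 37°C. Replication read as mCherry fluorescence (ex 580/em 620 nm), normalized to untreated infected cells; duplicates, curves fitted.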

chymotrypsin = test: Proteolytic stability assay, chymotrypsin; assay type: in vitro ADME; conditions: treated with chymotrypsin or trypsin, LC/MS
Experimental: as §1, §2, §3

[7] = RSV-Cherry MOI 0.2, peptide and virus removed after infection and fresh peptide added, mCherry fluorescence 48 h p.i., at least twice in duplicate

Cc1cn2nc([C@@H]3CCCCN3C(=O)c3cc(Cl)ccc3NS(C)(=O)=O)cc2nc1N1CC[C@H](N)C1 [GS-5806]
EC50 (RSV): 0.4 nM

CC[C@H](C)[C@H](NC(=O)[C@H](Cc1ccccc1)NC(=O)[C@H](C)NC(=O)[C@H](CC(C)C)NC(=O)[C@H](CO)NC(=O)[C@H](CCC(N)=O)NC(=O)[C@H](CC(N)=O)NC(=O)[C@@H](NC(=O)[C@H](CCCCN)NC(=O)[C@H](CCC(=O)O)NC(=O)[C@H](CC(N)=O)NC(=O)[C@@H](NC(=O)[C@H](CCC(N)=O)NC(=O)[C@H](CO)NC(=O)[C@@H](NC(=O)[C@H](CCC(=O)O)NC(C)=O)[C@@H](C)CC)C(C)C)[C@@H](C)CC)C(=O)N[C@@H](CCCNC(=N)N)C(N)=O [Peptide 2] (Ac-EISQVNEKINQSLAFIR-NH2)
solubility [1]: insoluble in all solvents tested

CC[C@H](C)[C@H](NC(=O)[C@H](CCCCN)NC(=O)[C@H](CCC(=O)O)NC(C)=O)C(=O)N[C@@H](CC(N)=O)C(=O)N[C@@H](CCC(N)=O)C(=O)N[C@@H](CO)C(=O)N[C@@H](CC(C)C)C(=O)N[C@@]1(C)CCCC=CCCC[C@@](C)(C(=O)N[C@@H](CO)C(=O)N[C@@H](CC(=O)O)C(=O)N[C@@]2(C)CCCC=CCCC[C@@](C)(C(=O)N[C@H](C(N)=O)C(C)C)NC(=O)[C@H](Cc3c[nH]cn3)NC(=O)[C@H](CC(C)C)NC(=O)[C@H](CC(C)C)NC2=O)NC(=O)[C@H](CCCNC(=N)N)NC(=O)[C@H]([C@@H](C)CC)NC(=O)[C@H](Cc2ccccc2)NC1=O [Peptide 4a] (Ac-EKINQSL[S5]FIR[S5]SD[S5]LLH[S5]V-NH2; staple 8-12, 15-19)
% Helicity ([2]; Table 2): 23.5% | % Helicity ([2]; Table 3 (Ala scan)): 64% | potency relative to hit peptide 3ac [3]: twice more potent | half-life [4]: 78 min | half-life at 2.9 µM [5]: 3.11 days

CC[C@H](C)[C@H](NC(=O)[C@H](CCCCN)NC(=O)[C@H](CCC(=O)O)NC(C)=O)C(=O)N[C@@]1(C)CCCC=CCCC[C@@](C)(C(=O)N[C@@H](Cc2ccccc2)C(=O)N[C@H](C(=O)N[C@@]2(C)CCCC=CCCC[C@@](C)(C(=O)N[C@@H](CC(C)C)C(=O)N[C@@H](CC(C)C)C(=O)N[C@@H](Cc3c[nH]cn3)C(=O)N[C@@H](CC(N)=O)C(=O)N[C@H](C(N)=O)C(C)C)NC(=O)[C@H](CC(=O)O)NC(=O)[C@H](CO)NC(=O)[C@H](CCCCN)NC2=O)[C@@H](C)CC)NC(=O)[C@H](CC(C)C)NC(=O)[C@H](CO)NC(=O)[C@H](CCC(N)=O)NC1=O [Peptide 4bb] (Ac-EKI[S5]QSL[S5]FI[S5]KSD[S5]LLHNV-NH2; staple 4-8, 11-15)
% Helicity ([2]; Table 2): 48.1% | % Helicity ([2]; Table 3 (Ala scan)): 53% | half-life [4]: 18 min | EC50 [6, 7]: 740 ± 270 nM | EC50 ([6]; Table 3 (Ala scan), rHRSV-mCherry MOI 0.2, 2-fold serial dilutions (11 dilutions), duplicate, ± SD of fit): 670 ± 70 nM | half-life at 2.9 µM [5]: 2.09 days

CC[C@H](C)[C@H](NC(=O)[C@H](Cc1ccccc1)NC(=O)[C@H](C)NC(=O)[C@H](CC(C)C)NC(=O)[C@H](CO)NC(=O)[C@H](CCC(N)=O)NC(=O)[C@H](CC(N)=O)NC(=O)[C@@H](NC(=O)[C@H](CCCCN)NC(=O)[C@H](CCC(=O)O)NC(C)=O)[C@@H](C)CC)C(=O)N[C@@H](CCCNC(=N)N)C(=O)N[C@@H](CCCCN)C(=O)N[C@@H](CO)C(=O)N[C@@H](CC(=O)O)C(=O)N[C@@H](CCC(=O)O)C(=O)N[C@@H](CC(C)C)C(=O)N[C@@H](CC(C)C)C(=O)N[C@@H](Cc1c[nH]cn1)C(=O)N[C@@H](CC(N)=O)C(=O)N[C@H](C(N)=O)C(C)C [Peptide 4] (Ac-EKINQSLAFIRKSDELLHNV-NH2)
half-life [4]: 4.8 min | EC50 [6, 7]: > 50000 nM | half-life at 2.9 µM [5]: 0.00333 days | time to full degradation (chymotrypsin): ≤ 10 min
